Data from patent US9346764B2, “Imidazolidinedione compounds and their uses” (HINOVA PHARMACEUTICALS INC., priority 2011, dated 2016).
Read-outs that look alike come from different tables or passages of the source.

Tests used:
[1] = Pharmacokinetic evaluation in mice; assay type: in vivo, Kunming mice (KM mice); conditions: male KM mice, 10 mg/kg intragastrically; for Cmax / Tmax: Kunming (KM), mouse, plasma, po, DMSO:PEG400:H2O 1:5:14
Procedure: Compounds were dissolved in DMSO:PEG400:H2O 1:5:14. The volume of administration was 10 mL/kg. Before testing, the mice fasted for 12 h and drunk water ad libitum. Then, the mice were fed together at 2 h after administration. 0.3 mL of blood were took from 3 mice through retrobulbar venous plexus at 0.5, 1.0, 2.0, 4.0, 6.0 and 24 h after administration, placed in heparinized tubes, and centrifuged for 5 min at 11000 rpm. The plasma was separated and frozen in a refrigerator at −20° C. 100 uL of serum was transferred with a pipettor into a clean plastic centrifuge tube marked with compound's name and time point, and diluted with acetonitrile (CH3CN) and centrifuged. The concentration of drug was analyzed by LC-MS. Serum was stored at −80° C. before analysis.

[2] = system: human prostate cancer LNCaP cells; test: Inhibition of the growth of prostate cancer cells (MTT), LNCaP; assay type: cell-based
Procedure: (§1) The ability of compounds to inhibit the growth of prostate cancer cells was tested:
(§2) First, the human prostate cancer LNCaP (purchased from ATCC, USA) and 22RV1 (purchased from SIBS) cells were transferred to a RPMI1640 culture medium containing 10% charcoal-stripped fetal bovine serum (FBS). After cultured for three days, the cells were digested with 0.25% trypsin and counted through trypan blue staining. The cells were plated, with 100 μL cell suspension containing 5000 cells per well. 200 μL medium was added to the wells around the cell plate for avoiding edge effects.
(§3) The cell plate was placed in a cell incubator for 30 min, 10 μL of 4 nM R1881 was added into each well and homogeneously mixed. Upon the addition of R1881, the cell plate was placed in a cell incubator and incubated at 37° C., under 5% CO2 for 96 hours. Afterwards, 40 μL of MTT (prepared in PBS, concentration is 2.5 mg/mL) was added into each wells, and incubated at 37° C. for 2 hours. The supernatant was sucked off, and 100 μL of DMSO was added into each well. The plate was shaken by a vibrator for 10 min for dissolving formazan. The plate was read at 570 nm wavelength using a microplate reader in the unit of OD.

[3] = system: human prostate cancer 22RV1 cells; test: Inhibition of the growth of prostate cancer cells (MTT), 22RV1; assay type: cell-based
Procedure: as §1, §2, §3

[4] = system: prostate specific antigen (PSA); test: Inhibition of prostate specific antigen (PSA) in 22RV1 cells induced with R1881; assay type: cell-based; conditions: Homo sapiens, 22Rv1, read-out: 22RV1 (IC50, nM)
Procedure: (§4) The in vitro biological activity of test compounds of the present invention as androgen receptor antagonist can be tested by the methods as reported in J. Medcinal Chemistry (2010, page 2779-2796 and WO201 1/029392).
(§5) The inhibition activity of these compounds on prostate specific antigen (PSA) was determined using prostate cancer cells (LNCaP and 22RV1). Prostate cancer cells (LNCaP and 22RV1) could be purchased from ATCC, USA. The expression of PSA in cells was induced with the artificially synthesized androgen R1881 (methyltrienolone, androgen receptor activator) to increase the sensitivity of inhibition experiment.

[5] = system: prostate specific antigen (PSA); test: Inhibition of prostate specific antigen (PSA) in LNCaP cells induced with R1881; assay type: cell-based; conditions: Homo sapiens, read-out: LNCaP (IC50, nM)
Procedure: as §4, §5

[6] = growth inhibition, LNCaP cells, R1881 added, 96 hours, MTT, read-out: LNCaP (IC50)
[7] = Homo sapiens, growth inhibition, LNCaP cells, R1881 added, 96 hours, MTT, read-out: LNCaP (IC50)
[8] = Homo sapiens, growth inhibition, 22RV1 cells, R1881 added, 96 hours, MTT, read-out: 22RV1 (IC50)
[9] = Homo sapiens, LNCaP, 96 h, read-out: LNCaP (IC50, uM)
[10] = Homo sapiens, 22Rv1, 96 h, read-out: 22RV1 (IC50, uM)

SMILES | IC50 [2, 7] [µM] | IC50 [3, 8] [µM] | IC50 [4] [nM] | IC50 [5] [nM] | IC50 [2, 9] [µM] | IC50 [3, 10] [µM] | also measured
CNC(=O)c1ccc(N2C(=S)N(c3ccc(C#N)c(C(F)(F)F)c3)C(=O)C2(C)C)cc1F [Example 4, 4-{7-[4-cyano-3-(trifluoromethyl)phenyl]-5,5-dimethyl-4-oxo-2-thio-1-imidazolidinyl}-2-fluoro-N-methyl-benzamide, reference compound] |  |  |  |  |  |  | Cmax [1]: 8450 ng/mL; Tmax [1]: 6 h
CNC(=O)c1ccc(N2C(=S)N(c3ccc(C#N)c(C(F)(F)F)c3)C(=O)C2(C)C)cc1 [Example 12, 4-{7-[4-cyano-3-(trifluoromethyl)phenyl]-5,5-dimethyl-4-oxo-2-thio-1-imidazolidinyl}-2-deutero-N-trideuteromethyl benzamide] |  |  |  |  |  |  | IC50 [2, 6]: 2.42 µM; IC50 ([3]; growth inhibition, 22RV1 cells, R1881 added, 96 hours, MTT, read-out: 22RV1 (IC50)): 25.8 µM
[2H]C([2H])([2H])NC(=O)c1ccc(N2C(=S)N(c3ccc(C#N)c(C(F)(F)F)c3)C(=O)C2(C)C)cc1F [Example 6, 4-{7-[4-cyano-3-(trifluoromethyl)phenyl]-5,5-dimethyl-4-oxo-2-thio-1-imidazolidinyl}-2-fluoro-N-trideuteromethylbenzamide] |  |  |  |  |  |  | Cmax [1]: 10400 ng/mL; Tmax [1]: 6 h; AUC compared with undeuterated compound 17 [1]: significantly increased; Cmax increase compared with undeuterated compound 17 [1]: at least 20%
CN(C)C(=O)c1ccc(N2C(=S)N(c3ccc(C#N)c(C(F)(F)F)c3)C(=O)C23CCC3)cc1F [Example 2] | 1.37 | 20.8 | < 1600 | < 800 |  |  | 
[2H]C([2H])([2H])NC(=O)c1ccc(N2C(=S)N(c3ccc(C#N)c(C(F)(F)F)c3)C(=O)C23CCC3)cc1F [Example 3] |  |  | < 1000 | < 400 | 0.36 | 15 | 
CNC(=O)c1ccc(N2C(=S)N(c3ccc(C#N)c(C(F)(F)F)c3)C(=O)C23CCC3)cc1F [Example 1, reference compound] |  |  | < 2000 | < 1000 | 4.09 | 26 | 
CN(C)C(=O)c1ccc(N2C(=S)N(c3ccc(C#N)c(C(F)(F)F)c3)C(=O)C2(C)C)cc1F [Example 5, 4-{7-[4-cyano-3-(trifluoromethyl)phenyl]-5,5-dimethyl-4-oxo-2-thio-1-imidazolidinyl}-2-fluoro-N,N-dimethyl benzamide] | 2.07 | 23.4 | < 1600 | < 800 |  |  | 
CC(O)(CS(=O)(=O)c1ccc(F)cc1)C(=O)Nc1ccc(C#N)c(C(F)(F)F)c1 (centres unmarked) [bicalutamide, reference compound] | 18.4 | 30.9 |  |  |  |  | 
[2H]c1cc(N2C(=S)N(c3ccc(C#N)c(C(F)(F)F)c3)C(=O)C2(C)C)ccc1C(=O)NC [Example 11, 4-{7-[4-cyano-3-(trifluoromethyl)phenyl]-5,5-dimethyl-4-oxo-2-thio-1-imidazolidinyl}-2-deutero-N-methyl benzamide] |  |  |  |  | 1.75 | 18.9 | 
CNC(=O)c1ccc(N2C(=S)N(c3ccc(C#N)c(C(F)(F)F)c3)C(=O)C2(C)C)cc1F [Example 14, 4-{7-[4-cyano-3-trifluoromethyl-2,6-dideuterophenyl]-5,5-dimethyl-4-oxo-2-thio-1-imidazolidinyl}-2-fluoro-N-trideuteromethyl benzamide] |  |  |  |  |  |  | IC50 [2, 6]: 1.5 µM
